Reference: patent USRE39591E1, “6-O-substituted ketolides having antibacterial activity” (Abbott Laboratories, priority 1996, dated 2007)
In brackets after ≈: the same amount, converted by molar mass.

Tested on: up to 32 different microorganisms
Test: in vitro antibacterial activity (MIC), agar dilution on Brain Heart Infusion (BHI) agar with Steers replicator
Assay type: cell-based
Details: unit assumed
Experimental: Representative compounds of the present invention were assayed in vitro for antibacterial activity as follows: Twelve petri dishes containing successive aqueous dilutions of the test compound mixed with 10 mL of sterilized Brain Heart Infusion (BHI) agar (Difco 0148-01-5) were prepared. Each plate was inoculated with 1:100 (or 1:10 for slow-growing strains, such as Micrococcus and Streptococcus) dilutions of up to 32 different microorganisms, using a Steers replicator block. The inoculated plates were incubated at 35°-37° C. for 20 to 24 hours. In addition, a control plate, using BHI agar containing no test compound, was prepared and incubated at the beginning and end of each test.
An additional plate containing a compound having known susceptibility patterns for the organisms being tested and belonging to the same antibiotic class as the test compound was also prepared and incubated as a further control, as well as to provide test-to-test comparability. Erythromycin A was used for this purpose.
After incubation, each plate was visually inspected. The minimum inhibitory concentration (MIC) was defined as the lowest concentration of drug yielding no growth, a slight haze, or sparsely isolated colonies on the inoculum spot as compared to the growth control.

[1] = Candida albicans CCH 442 (code TT)
[2] = Enterococcus faecism ATCC 8043 (code II)
[3] = Escherichia coli DC-2 (code SS)
[4] = Escherichia coli JUHL (code QQ)
[5] = Haemophilis influenzae DILL AMP R (code WW)
[6] = Micrococcus luteus ATCC 4698 (code PP)
[7] = Micrococcus luteus ATCC 9341 (code OO)
[8] = Mycobacterium smegmatis ATCC 114 (code UU)
[9] = Nocardia Asteroides ATCC9970 (code VV)
[10] = Staphylococcus aureus 1775 (code GG)
[11] = Staphylococcus aureus A5177 (code BB)
[12] = Staphylococcus aureus A-5278 (code CC)
[13] = Staphylococcus aureus ATCC 6538P (code AA)
[14] = Staphylococcus aureus CMX 553 (code FF)
[15] = Staphylococcus aureus CMX 642A (code DD)
[16] = Staphylococcus aureus NCTC10649M (code EE)
[17] = Staphylococcus epidermidis 3519 (code HH)
[18] = Streptococcus Pneumonia 5649 (code ZZA)
[19] = Streptococcus Pneumonia 5979 (code ZZ)
[20] = Streptococcus Pneumonia ATCC6303 (code XX)
[21] = Streptococcus Pneumonia GYR 1171 (code YY)
[22] = Streptococcus agalactiae CMX 508 (code KK)
[23] = Streptococcus pyogenes 930 (code MM)
[24] = Streptococcus pyogenes EES61 (code LL)
[25] = Streptococcus pyogenes PIU 2548 (code NN)
[26] = Streptococcus bovis A-5169 (code JJ)

SMILES	MIC [1] [µg/mL]	MIC [2] [µg/mL]	MIC [3] [µg/mL]	MIC [4] [µg/mL]	MIC (Escherichia coli SS (code RR)) [µg/mL]	MIC [6] [µg/mL]	MIC [7] [µg/mL]	MIC [8] [µg/mL]	MIC [9] [µg/mL]	MIC [10] [µg/mL]	MIC [12] [µg/mL]	MIC [13] [µg/mL]	MIC [14] [µg/mL]	MIC [15] [µg/mL]	MIC [16] [µg/mL]	MIC [17] [µg/mL]	MIC [22] [µg/mL]	MIC [23] [µg/mL]	MIC [24] [µg/mL]	MIC [25] [µg/mL]	other results
CCC1OC(=O)C(C)C(=O)C(C)C(OC2OC(C)CC(N(C)C)C2O)C(C)(OCC=Cc2cnc3ccc(Cl)cc3c2)CC(C)C(=O)C(C)C2NC(=O)OC12C (stereo not shown) [Example 191, R is —CH2CH═CH-(6-chloro-3-quinolyl)]	> 100	0.05 (≈ 0.0625 µM)	100 (≈ 125 µM)	50 (≈ 62.5 µM)	0.2 (≈ 0.25 µM)	0.1 (≈ 0.125 µM)	0.01 (≈ 0.0125 µM)	0.39 (≈ 0.487 µM)	0.02 (≈ 0.025 µM)	> 100	> 100	0.05 (≈ 0.0625 µM)	0.05 (≈ 0.0625 µM)	0.05 (≈ 0.0625 µM)	0.1 (≈ 0.125 µM)	0.05 (≈ 0.0625 µM)	0.05 (≈ 0.0625 µM)	3.1 (≈ 3.87 µM)	0.02 (≈ 0.025 µM)	0.1 (≈ 0.125 µM)	MIC [5]: 2 µg/mL (≈ 2.5 µM); MIC [11]: 0.05 µg/mL (≈ 0.0625 µM); MIC [18]: 0.25 µg/mL (≈ 0.312 µM); MIC [19]: 2 µg/mL (≈ 2.5 µM); MIC [20]: 0.03 µg/mL (≈ 0.0375 µM); MIC [21]: 0.03 µg/mL (≈ 0.0375 µM)
CCC1OC(=O)C(C)C(=O)C(C)C(OC2OC(C)CC(N(C)C)C2O)C(C)(OCC=Cc2ccc3c(c2)OCCO3)CC(C)C(=O)C(C)C2NC(=O)OC12C (stereo not shown) [Example 192]	> 100	0.02 (≈ 0.0259 µM)	100 (≈ 129 µM)	> 100	0.2 (≈ 0.259 µM)	0.2 (≈ 0.259 µM)	0.01 (≈ 0.0129 µM)	3.1 (≈ 4.01 µM)	0.1 (≈ 0.129 µM)	> 100	> 100	0.1 (≈ 0.129 µM)	0.1 (≈ 0.129 µM)	0.1 (≈ 0.129 µM)	0.2 (≈ 0.259 µM)	0.1 (≈ 0.129 µM)	0.01 (≈ 0.0129 µM)	50 (≈ 64.7 µM)	0.01 (≈ 0.0129 µM)	0.1 (≈ 0.129 µM)	MIC [5]: 4 µg/mL (≈ 5.18 µM); MIC [11]: 0.1 µg/mL (≈ 0.129 µM); MIC [18]: 0.25 µg/mL (≈ 0.323 µM); MIC [19]: > 128 µg/mL; MIC [20]: 0.03 µg/mL (≈ 0.0388 µM); MIC [21]: 0.03 µg/mL (≈ 0.0388 µM); MIC [26]: 0.01 µg/mL (≈ 0.0129 µM)
CCC1OC(=O)C(C)C(=O)C(C)C(OC2OC(C)CC(N(C)C)C2O)C(C)(OCC=Cc2cccc([N+](=O)[O-])c2)CC(C)C(=O)C(C)C2NC(=O)OC12C (stereo not shown) [Example 193, R is —CH2CH═CH-(3-nitrophenyl)]	> 100	0.02 (≈ 0.0263 µM)	> 100	100 (≈ 132 µM)	0.2 (≈ 0.263 µM)	0.1 (≈ 0.132 µM)	0.01 (≈ 0.0132 µM)	0.39 (≈ 0.513 µM)	0.05 (≈ 0.0658 µM)	> 100	> 100	0.05 (≈ 0.0658 µM)	0.1 (≈ 0.132 µM)	0.1 (≈ 0.132 µM)	0.1 (≈ 0.132 µM)	0.1 (≈ 0.132 µM)	0.01 (≈ 0.0132 µM)	25 (≈ 32.9 µM)	≤ 0.005	0.05 (≈ 0.0658 µM)	MIC [11]: 0.1 µg/mL (≈ 0.132 µM); MIC [26]: 0.01 µg/mL (≈ 0.0132 µM)
CCC1OC(=O)C(C)C(=O)C(C)C(OC2OC(C)CC(N(C)C)C2O)C(C)(OCC=Cc2ccc3ncccc3c2)CC(C)C(=O)C(C)C2NC(=O)OC12C (stereo not shown) [Example 194, R is —CH2CH═CH-(6-quinolyl)]	> 100	0.02 (≈ 0.0261 µM)	100 (≈ 131 µM)	50 (≈ 65.3 µM)	0.39 (≈ 0.509 µM)	0.1 (≈ 0.131 µM)	0.01 (≈ 0.0131 µM)	0.78 (≈ 1.02 µM)	≤ 0.005	> 100	> 100	0.05 (≈ 0.0653 µM)	0.05 (≈ 0.0653 µM)	0.05 (≈ 0.0653 µM)	0.1 (≈ 0.131 µM)	0.05 (≈ 0.0653 µM)	0.01 (≈ 0.0131 µM)	0.78 (≈ 1.02 µM)	0.01 (≈ 0.0131 µM)	0.05 (≈ 0.0653 µM)	MIC [11]: 0.05 µg/mL (≈ 0.0653 µM); MIC [26]: ≤ 0.005 µg/mL
CCC1OC(=O)C(C)C(=O)C(C)C(OC2OC(C)CC(N(C)C)C2O)C(C)(OCC=Cc2cnc3ccc([N+](=O)[O-])cc3c2)CC(C)C(=O)C(C)C2NC(=O)OC12C (stereo not shown) [Example 195, R is —CH2CH═CH-(6-nitroquinolyl)]	> 100	0.05 (≈ 0.0617 µM)	50 (≈ 61.7 µM)	50 (≈ 61.7 µM)	0.2 (≈ 0.247 µM)	0.1 (≈ 0.123 µM)	0.01 (≈ 0.0123 µM)	0.39 (≈ 0.481 µM)	0.05 (≈ 0.0617 µM)	> 100	> 100	0.05 (≈ 0.0617 µM)	0.05 (≈ 0.0617 µM)	0.05 (≈ 0.0617 µM)	0.05 (≈ 0.0617 µM)	0.05 (≈ 0.0617 µM)	0.05 (≈ 0.0617 µM)	1.56 (≈ 1.92 µM)	0.02 (≈ 0.0247 µM)	0.1 (≈ 0.123 µM)	MIC [26]: 0.01 µg/mL (≈ 0.0123 µM)
